Values joined by “and” are separate entries in the source; they are usually repeats but may differ in a detail not shown here. Equal values may be shown once. Numbers after ± are expanded uncertainties.
What was measured:
[1] = 101.3 kPa, Liquid; for speed of sound: Pulse-echo method; for mass density: Vibrating tube method
[2] = xn = mol fraction of the nth substance listed; conditions: 101 kPa, Liquid; for speed of sound: Pulse-echo method; for mass density: Vibrating tube method

ClCBr [bromochloromethane]
[1]
Conditions	mass density [kg/m3]	speed of sound [m/s]
293.15 K	1933.23 ± 1.1	1001.2 ± 1.2
298.15 K	1921.71 ± 1.1	986.1 ± 1.2
303.15 K	1910.15 ± 1.1	971 ± 1.2
308.15 K	1898.51 ± 1.1	955.9 ± 1.2
313.15 K	1886.82 ± 1.1	940.8 ± 1.2

ClC(Cl)(Cl)Br [bromotrichloromethane]
[1]
Conditions	mass density [kg/m3]	speed of sound [m/s]
293.15 K	2013.06 ± 1.2	917.1 ± 1.2
298.15 K	2002.14 ± 1.2	903.6 ± 1.2
303.15 K	1991.2 ± 1.2	890.2 ± 1.2
308.15 K	1980.24 ± 1.2	876.8 ± 1.2
313.15 K	1969.25 ± 1.2	863.6 ± 1.2

ClC(Cl)(Cl)Br [bromotrichloromethane] + ClCBr
[2], x1 = 1
Conditions	mass density [kg/m3]	speed of sound [m/s]
293.15 K	2013.06 ± 1.2	917.1 ± 1.2
298.15 K	2002.14 ± 1.2	903.6 ± 1.2
303.15 K	1991.2 ± 1.2	890.2 ± 1.2
308.15 K	1980.24 ± 1.2	876.8 ± 1.2
313.15 K	1969.25 ± 1.2	863.6 ± 1.2

BrCBr [dibromomethane]
[1]
Conditions	mass density [kg/m3]	speed of sound [m/s]
293.15 K	2491.67 ± 1.8	961.8 ± 1.2
298.15 K	2478.61 ± 1.8	949.2 ± 1.2
303.15 K	2465.53 ± 1.8	936.6 ± 1.2
308.15 K	2452.42 ± 1.8	924 ± 1.2
313.15 K	2439.26 ± 1.8	911.4 ± 1.2

BrCBr [dibromomethane] + ClC(Cl)(Cl)Br
[2], x2 = 0
Conditions	mass density [kg/m3]	speed of sound [m/s]
293.15 K	2491.67 ± 1.8	961.8 ± 1.2
298.15 K	2478.61 ± 1.8	949.2 ± 1.2
303.15 K	2465.53 ± 1.8	936.6 ± 1.2
308.15 K	2452.42 ± 1.8	924 ± 1.2
313.15 K	2439.26 ± 1.8	911.4 ± 1.2

CCCCCCC [heptane]
[1]
Conditions	mass density [kg/m3]	speed of sound
293.15 K	683.84 ± 0.18	1152.6 ± 0.9 m/s and 1152.2 ± 0.9 m/s
298.15 K	679.6 ± 0.18	1131 ± 0.9 m/s and 1130.9 ± 0.9 m/s
303.15 K	675.33 ± 0.18	1109.6 ± 0.9 m/s and 1109.1 ± 0.9 m/s
308.15 K	671.04 ± 0.18	1088.2 ± 0.9 m/s and 1088.1 ± 0.9 m/s
313.15 K	666.71 ± 0.18	1067.1 ± 0.9 m/s and 1066.9 ± 0.9 m/s

CCCCCCC [heptane] + BrCBr
[2], x2 = 0
Conditions	mass density [kg/m3]	speed of sound [m/s]
293.15 K	683.84 ± 0.18	1152.2 ± 0.9
298.15 K	679.6 ± 0.18	1130.9 ± 0.9
303.15 K	675.33 ± 0.18	1109.1 ± 0.9
308.15 K	671.04 ± 0.18	1088.1 ± 0.9
313.15 K	666.71 ± 0.18	1066.9 ± 0.9

CCCCCCC [heptane] + ClC(Cl)(Cl)Br
[2], x2 = 0
Conditions	mass density [kg/m3]	speed of sound [m/s]
293.15 K	683.84 ± 0.18	1152.6 ± 0.9
298.15 K	679.6 ± 0.18	1131 ± 0.9
303.15 K	675.33 ± 0.18	1109.6 ± 0.9
308.15 K	671.04 ± 0.18	1088.2 ± 0.9
313.15 K	666.71 ± 0.18	1067.1 ± 0.9

— the NIST ThermoML archive (doi:10.1021/je300775u)
